# Test results: patent US20050003388A1, “Calcium independent phospholipase A2upsilon polynucleotides and polypeptides and methods therefor” (priority 2000, published 2005)
# Columns and labels:
# [1] = biological target: T1, human iPLA2γ (Homo sapiens, UniProt Q9NP80); test: Inhibition by BEL of phospholipase A2 activity of iPLA2γ in membrane fractions of infected Sf9 cells; format: biochemical
# T1 sequence (Q9NP80 1-782): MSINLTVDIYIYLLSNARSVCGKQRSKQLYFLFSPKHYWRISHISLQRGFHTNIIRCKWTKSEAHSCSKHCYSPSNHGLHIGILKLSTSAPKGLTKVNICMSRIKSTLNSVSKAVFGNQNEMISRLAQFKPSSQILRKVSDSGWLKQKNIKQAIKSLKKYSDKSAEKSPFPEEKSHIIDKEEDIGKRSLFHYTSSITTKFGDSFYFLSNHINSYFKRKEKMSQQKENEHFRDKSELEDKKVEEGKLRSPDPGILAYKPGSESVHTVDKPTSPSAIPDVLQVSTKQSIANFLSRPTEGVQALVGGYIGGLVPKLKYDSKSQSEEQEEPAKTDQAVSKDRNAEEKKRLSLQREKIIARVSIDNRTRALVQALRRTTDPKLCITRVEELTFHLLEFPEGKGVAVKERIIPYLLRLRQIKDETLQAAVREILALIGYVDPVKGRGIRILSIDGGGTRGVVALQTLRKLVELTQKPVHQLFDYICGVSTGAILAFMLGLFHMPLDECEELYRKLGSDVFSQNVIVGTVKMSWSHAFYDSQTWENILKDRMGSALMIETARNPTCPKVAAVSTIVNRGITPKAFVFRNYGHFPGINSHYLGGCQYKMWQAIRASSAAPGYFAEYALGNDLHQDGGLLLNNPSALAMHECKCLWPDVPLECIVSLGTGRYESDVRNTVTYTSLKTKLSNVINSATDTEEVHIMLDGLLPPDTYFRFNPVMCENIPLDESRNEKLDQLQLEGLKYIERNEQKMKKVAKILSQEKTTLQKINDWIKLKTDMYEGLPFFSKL
# Description: Briefly, Sf9 cells were infected with either wild-type baculovirus or baculovirus encoding human iPLA2γ, as described in Example 5. Cytosolic and membrane fractions of the infected Sf9 cells were prepared as described above. Phospholipase A2 activity was assessed as follows. Membrane fractions from control cells or cells expressing iPLA2γ were incubated with 40 μM L-α-1-palmitoyl-2-[1-^14C]oleoyl phosphatidylcholine in 100 mM Tris-Hac, pH 8.0, containing 1 mM EGTA at 37° C. Aliquots of the reaction were removed at the indicated times, and the amount of [1-^14C]oleic acid released was quantified as described above. Specifically, the release of sn-2-fatty acid from glycero-3-phosphocholine was determined as a function of time.
# Briefly, Sf9 cells were infected with either wild-type baculovirus or baculovirus encoding human iPLA2γ, as described in Example 5. Membrane fractions of the infected Sf9 cells were prepared as described above, and then incubated for three minutes at room temperature in 100 mM Tris-HAc, pH 8.0, containing lmM EGTA, with varying concentrations of BEL, or ethanol vehicle, as indicated along the x-axis. L-α-1-palmitoyl-2-[1-^14C]oleoyl phosphatidylcholine (40 μM final concentration) in ethanol was then added to each reaction, followed by incubation at 37° C. for two minutes. Released [1-^14C]oleic acid was quantitated as described above. […]
# [2] = test system: myocardial cytosolic and membrane-associated iPLA2; settings: irreversible mechanism-based inhibitor; Hazen et al. 1991, Zupan et al., Gross et al. 1993; cited from earlier work
# [3] = biological target: T2, calcium-facilitated phospholipase A2γ (Homo sapiens, UniProt Q9UP65); settings: at <50 μM [BEL]; Jenkins et al. 2002; cited from earlier work
# T2 sequence (Q9UP65 1-541): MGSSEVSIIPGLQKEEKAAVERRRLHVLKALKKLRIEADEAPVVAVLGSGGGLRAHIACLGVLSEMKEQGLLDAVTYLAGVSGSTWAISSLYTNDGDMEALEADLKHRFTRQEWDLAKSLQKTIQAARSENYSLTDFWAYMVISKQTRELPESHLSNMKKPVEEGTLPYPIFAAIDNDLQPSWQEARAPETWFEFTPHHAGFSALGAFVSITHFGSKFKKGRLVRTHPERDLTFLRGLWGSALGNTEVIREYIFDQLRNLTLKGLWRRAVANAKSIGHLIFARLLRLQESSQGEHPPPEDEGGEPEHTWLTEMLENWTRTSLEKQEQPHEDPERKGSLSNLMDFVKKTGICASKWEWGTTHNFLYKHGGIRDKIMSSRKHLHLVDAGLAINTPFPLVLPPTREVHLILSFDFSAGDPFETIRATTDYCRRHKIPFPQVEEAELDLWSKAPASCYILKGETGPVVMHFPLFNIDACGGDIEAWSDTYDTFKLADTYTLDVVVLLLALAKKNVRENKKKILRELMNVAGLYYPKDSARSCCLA
structure (smiles),measurement,setting,value
"O=C1OC(=CBr)CCC1c1cccc2ccccc12 (stereo not shown) [BEL, (E)-6-(bromomethylene)-3-(1-napthalenyl)-2H-tetrahydropyran-2-one]",IC50,[1],~3 µM
same,inhibition at 5 µM,"[1]; 5 μM BEL, preincubation of membranes for three minutes prior to addition of substrate (40 μM POPC), 37° C. two minutes",~70%
same,concentrations giving nearly complete inhibition of myocardial cytosolic membrane-associated iPLA2,[2],2 to 5 µM
same,inhibition of calcium-facilitated phospholipase A2γ by BEL,[3],not inhibited
